Earlier results as cited in patent publication US11697638B2, “5-methoxy-N,N-dimethyltryptamine crystalline forms” (Small Pharma Ltd, priority 2021, dated 2023).
Like-named read-outs stand apart in the source and are kept apart here.

Conditions: self-report, uncontrolled setting

Compound: COc1ccc2[nH]cc(CCN(C)C)c2c1 [5-MeO-DMT, 5-methoxy-N,N-dimethyltryptamine]
- participants with psychiatric diagnoses indicating that their symptoms improved following 5-MeO-DMT use (anxiety): 69%
- participants with psychiatric diagnoses indicating that their symptoms improved following 5-MeO-DMT use (depression): 77%
- participants with psychiatric diagnoses indicating that their symptoms improved following 5-MeO-DMT use (post-traumatic stress disorder): 79%
